From the supplement of paper PMC10307832

How the values were obtained:
Test in all cases: relative viability (nuclei count vs DMSO), 5 days (fraction); higher = more cells survive
Ponatinib + Luminespib = compound: Cc1ccc(C(=O)Nc2ccc(CN3CCN(C)CC3)c(C(F)(F)F)c2)cc1C#Cc1cnc2cccnn12 [Ponatinib] + CCNC(=O)c1noc(-c2cc(C(C)C)c(O)cc2O)c1-c1ccc(CN2CCOCC2)cc1 [Luminespib] (partner 0.01 µM)
In short: (§1)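 The day after seeding in 1536-well plates, lung cancer cell lines were treated by pin tool with a single drug, or with a fixed anchor-drug dose together with five library-drug doses (not always all listed) in √10 steps. After 5 days, a combined fix-and-stain solution (final 0.05% Triton X-100, 1% formaldehyde, 1 ug/ml Hoechst) was added. Nuclei counted on 4× images gave relative viability as treated counts over vehicle counts, reported as the median of duplicate plates.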

Ponatinib + Olaparib = compound: Cc1ccc(C(=O)Nc2ccc(CN3CCN(C)CC3)c(C(F)(F)F)c2)cc1C#Cc1cnc2cccnn12 [Ponatinib] + O=C(c1cc(Cc2n[nH]c(=O)c3ccccc23)ccc1F)N1CCN(C(=O)C2CC2)CC1 [Olaparib] (partner 8 µM)
In short: as §1

Pazopanib + Linsitinib = compound: Cc1ccc(Nc2nccc(N(C)c3ccc4c(C)n(C)nc4c3)n2)cc1S(N)(=O)=O [Pazopanib] + C[C@]1(O)C[C@@H](c2nc(-c3ccc4ccc(-c5ccccc5)nc4c3)c3c(N)nccn32)C1 [Linsitinib] (partner 1 µM)
In short: as §1

Pazopanib + Decitabine = compound: Cc1ccc(Nc2nccc(N(C)c3ccc4c(C)n(C)nc4c3)n2)cc1S(N)(=O)=O [Pazopanib] + Nc1ncn([C@H]2C[C@H](O)[C@@H](CO)O2)c(=O)n1 [Decitabine] (partner 2 µM)
In short: as §1

Cell Line	relative viability (Ponatinib + Luminespib; first compound 0.002 µM)	relative viability (Ponatinib + Luminespib; first compound 0.006325 µM)	relative viability (Ponatinib + Luminespib; first compound 0.06325 µM)	relative viability (Ponatinib + Luminespib; first compound 0.2 µM)	relative viability (Ponatinib + Olaparib; first compound 0.002 µM)	relative viability (Ponatinib + Olaparib; first compound 0.006325 µM)	relative viability (Ponatinib + Olaparib; first compound 0.06325 µM)	relative viability (Ponatinib + Olaparib; first compound 0.2 µM)	relative viability (Pazopanib + Linsitinib; first compound 0.01 µM)	relative viability (Pazopanib + Linsitinib; first compound 0.03162 µM)	relative viability (Pazopanib + Linsitinib; first compound 0.1 µM)	relative viability (Pazopanib + Linsitinib; first compound 0.3162 µM)	relative viability (Pazopanib + Linsitinib; first compound 1 µM)	relative viability (Pazopanib + Decitabine; first compound 0.01 µM)	relative viability (Pazopanib + Decitabine; first compound 0.03162 µM)	relative viability (Pazopanib + Decitabine; first compound 0.1 µM)	relative viability (Pazopanib + Decitabine; first compound 0.3162 µM)	relative viability (Pazopanib + Decitabine; first compound 1 µM)
NCI-H358	0.406	0.418	0.597	0.262	0.565	0.609	0.648	0.49	0.875	0.626	0.82	0.993	0.821	0.217	0.22	0.219	0.25	0.276
NCI-H441	0.359	0.354	0.305	0.315	0.437	0.477	0.578	0.438	0.536	0.528	0.558	0.5	0.612	0.239	0.272	0.229	0.257	0.252
NCI-H460	0.0243	0.0378	0.0319	0.0324	0.335	0.395	0.412	0.397	0.823	1.13	0.838	0.98	0.827	0.561	0.513	0.551	0.488	0.552
NCI-H520	0.207	0.209	0.19	0.223	0.335	0.355	0.325	0.225		1.05	1	0.946	1.05	0.48	0.471	0.569	0.509	0.572
NCI-H596	1.06	1.07	1.01	0.686	0.662	0.72	0.787	0.661	0.833	1.12	1.24	1.06	1.03	0.996	1.08	1.14	1.12	0.966
NCI-H647	0.136	0.225	0.158	0.234	0.521	0.527	0.615	0.522	1.17	1.4	1.17	1.23	1.11	0.402	0.408	0.344	0.487	0.295
NCI-H650	0.807	0.783	0.958	0.775	0.344	0.417	0.452	0.401	0.738	1.1	0.808	0.92	0.839	0.303	0.299	0.353	0.293	0.353
NCI-H661	0.916	0.903	0.898	0.927	0.724	0.704	0.833	0.737	0.44	0.637	0.581	0.541	0.672	0.498	0.576	0.578	0.598	0.596
NCI-H727	0.321	0.444	0.516	0.261	0.609	0.742	0.587	0.627	0.311	0.336	0.35	0.237	0.245	0.724		0.879	0.885	1.02
NCI-H838	0.324	0.324	0.298	0.3	0.758	0.771	0.795	0.669	1.01	1.05	1.01	1.18	1.19	0.458	0.462	0.507	0.414	0.523
NCI-H1355	0.688	0.667	0.874	0.709	0.668	0.709	0.817	0.739		0.909	0.921	0.856	0.861	0.355	0.314	0.367	0.358	0.386
NCI-H1395	0.644	0.601	0.829	0.637	0.446	0.425	0.47	0.433	0.983	1.27	1.07	0.992	1.05	0.651	0.69	0.638	0.766	0.743
NCI-H1437	1.18	1.09	1.25	1.09	0.598	0.595	0.654	0.623	1.04	1.07	0.973	1.04	1.05	0.541	0.611	0.626	0.602	0.567
NCI-H1651	0.986	0.864	0.915	1.05	0.197	0.195	0.18	0.177	1.11	0.901	0.886	0.982	1.08	0.543	0.644	0.644	0.552	0.656
NCI-H1666	1.02	0.998	1.09	0.986	0.749	0.76	0.733	0.664	1.15	0.857	0.909	0.767	1.07	0.703	0.716	0.636	0.76	0.765
NCI-H1734	0.195	0.181	0.186	0.173	0.62	0.618	0.673	0.488	0.823	0.963	0.905	0.942	0.933	0.498	0.492	0.461	0.532	0.512
NCI-H1755	0.249	0.696	0.561	0.359	0.806	0.856	0.882	0.782	0.934	0.995	1.01	0.967	1.01	0.718	0.709	0.742	0.773	0.783
NCI-H1792	0.354	0.422	0.465	0.389	0.44	0.587	0.489	0.313		0.534	0.601	0.522	0.588		0.549	0.456	0.621	0.524

Cell Line	relative viability (Ponatinib + Luminespib; first compound 0.002 µM)	relative viability (Ponatinib + Luminespib; first compound 0.006325 µM)	relative viability (Ponatinib + Luminespib; first compound 0.06325 µM)	relative viability (Ponatinib + Luminespib; first compound 0.2 µM)	relative viability (Ponatinib + Olaparib; first compound 0.002 µM)	relative viability (Ponatinib + Olaparib; first compound 0.006325 µM)	relative viability (Ponatinib + Olaparib; first compound 0.06325 µM)	relative viability (Ponatinib + Olaparib; first compound 0.2 µM)	relative viability (Pazopanib + Linsitinib; first compound 0.01 µM)	relative viability (Pazopanib + Linsitinib; first compound 0.03162 µM)	relative viability (Pazopanib + Linsitinib; first compound 0.1 µM)	relative viability (Pazopanib + Linsitinib; first compound 0.3162 µM)	relative viability (Pazopanib + Linsitinib; first compound 1 µM)	relative viability (Pazopanib + Decitabine; first compound 0.01 µM)	relative viability (Pazopanib + Decitabine; first compound 0.03162 µM)	relative viability (Pazopanib + Decitabine; first compound 0.1 µM)	relative viability (Pazopanib + Decitabine; first compound 0.3162 µM)	relative viability (Pazopanib + Decitabine; first compound 1 µM)
NCI-H1793	0.479	0.212	0.147	0.184	0.882	0.986	1.01	0.756		0.871	0.835	0.83	0.905		0.516	0.488	0.506	0.627
NCI-H1915	0.754	0.769	0.805	0.672	0.254	0.275	0.278	0.234	1.12	1.14	1.08	1.03	0.994	0.244	0.264	0.263	0.261	0.291
NCI-H1944	0.666	0.684	0.833	0.743	0.378	0.455	0.427	0.441	1.08	1.28	1.15	1.24	1.32	0.463	0.424	0.424	0.427	0.467
NCI-H1975	0.248	0.24	0.289	0.165	0.756	0.77	0.787	0.732	0.85	0.943	0.992	0.929	0.985	0.374	0.373	0.394	0.401	0.374
NCI-H1993	0.778	0.921	0.991	0.932	1.01	1.01	1.16	1.12	0.717	0.757	0.726	0.638	0.852		0.493	0.607	0.678	0.59
NCI-H2009	0.975	0.967	1.02	0.918	0.586	0.632	0.655	0.616	1.22	1.22	1.21	1.15	1.06	0.334	0.387	0.396	0.343	0.382
NCI-H2023	0.749	0.749	0.748	0.543	0.455	0.465	0.552	0.451	0.699	0.637	0.863	0.623	0.682	0.206	0.236	0.228	0.206	0.265
NCI-H2085	0.459	0.459	0.446	0.432	0.808	0.814	0.9	0.754	0.818	0.862	0.901	0.797	0.887	0.573	0.508	0.555	0.602	0.581
NCI-H2087	0.167	0.135	0.178	0.176	0.514	0.609	0.635	0.497	1.02	0.967	1.13	0.841	0.895	0.186	0.321	0.264	0.252	0.424
NCI-H2126	0.874	0.955	1.04	0.873	0.902	0.904	0.967	0.847	0.563	0.734	0.749	0.677	0.774	0.517	0.59	0.614	0.561	0.643
NCI-H2347	0.6	0.544	0.487	0.435	0.546	0.604	0.625	0.547	0.854	1.01	1.1	1.09	1.12	0.68	0.555	0.673	0.732	0.666
NCI-H2405	0.664	0.833	0.941	0.64	0.784	0.796	0.95	0.776	0.729	1.12	1	1.12	1.02	0.724	0.774	0.8	0.858	0.814
NCI-H3122	0.113	0.0854	0.128	0.109	0.507	0.634	0.564	0.592	0.969	1.06	0.998	1.12	0.945	0.516	0.407	0.474	0.449	0.459
PC-3 [JPC-3]	0.649	0.697	0.811	0.668		1.15	1.3	1.09	0.993	0.972	0.961	0.918	0.961		0.885	0.773	0.916	0.787
PC-14	0.127	0.147	0.195	0.138	0.334	0.359	0.347	0.284	0.971	1	0.961	0.985	1	0.186	0.221	0.245	0.226	0.305
RERF-LC-KJ	1.17	1.32	1.47	1.21	0.874	0.879	0.988	0.793	0.889	0.912	0.825	0.782	0.912	0.66	0.681	0.739	0.631	0.699
SK-LU-1	0.196	0.213	0.2	0.175	0.36	0.491	0.535	0.388	1.02	1.22	1.17	1.27	1.11	0.568	0.611	0.633	0.632	0.665
SK-MES-1	0.761	0.89	1.01	0.745	0.765	0.819	0.857	0.769	0.983	1.01	1.12	1.15	1.02	0.338	0.359	0.369	0.416	0.55
